pIC50: −log10 of the molar value. Calls of active or inactive are those of the source. No cut-off for these calls is given here.
Experiments:
[1] = target: Histone deacetylase 1 (Homo sapiens) (UniProt Q13547); assay: Inhibition of HDAC1 (unknown origin) expressed in Escherichia coli BL21 (DE3) using GRKacFGC as substrate at 10 nM to 1 mM after 60 mins by SAMDI mass spectrometric analysis
[2] = target: T1, Protein deacetylase HDAC6 (Homo sapiens) (UniProt Q9UBN7); assay: Inhibition of HDAC6 (unknown origin) expressed in Escherichia coli BL21 (DE3) using GRKacYGC as substrate at 10 nM to 1 mM after 60 mins by SAMDI mass spectrometric analysis
T1 sequence (whole entry): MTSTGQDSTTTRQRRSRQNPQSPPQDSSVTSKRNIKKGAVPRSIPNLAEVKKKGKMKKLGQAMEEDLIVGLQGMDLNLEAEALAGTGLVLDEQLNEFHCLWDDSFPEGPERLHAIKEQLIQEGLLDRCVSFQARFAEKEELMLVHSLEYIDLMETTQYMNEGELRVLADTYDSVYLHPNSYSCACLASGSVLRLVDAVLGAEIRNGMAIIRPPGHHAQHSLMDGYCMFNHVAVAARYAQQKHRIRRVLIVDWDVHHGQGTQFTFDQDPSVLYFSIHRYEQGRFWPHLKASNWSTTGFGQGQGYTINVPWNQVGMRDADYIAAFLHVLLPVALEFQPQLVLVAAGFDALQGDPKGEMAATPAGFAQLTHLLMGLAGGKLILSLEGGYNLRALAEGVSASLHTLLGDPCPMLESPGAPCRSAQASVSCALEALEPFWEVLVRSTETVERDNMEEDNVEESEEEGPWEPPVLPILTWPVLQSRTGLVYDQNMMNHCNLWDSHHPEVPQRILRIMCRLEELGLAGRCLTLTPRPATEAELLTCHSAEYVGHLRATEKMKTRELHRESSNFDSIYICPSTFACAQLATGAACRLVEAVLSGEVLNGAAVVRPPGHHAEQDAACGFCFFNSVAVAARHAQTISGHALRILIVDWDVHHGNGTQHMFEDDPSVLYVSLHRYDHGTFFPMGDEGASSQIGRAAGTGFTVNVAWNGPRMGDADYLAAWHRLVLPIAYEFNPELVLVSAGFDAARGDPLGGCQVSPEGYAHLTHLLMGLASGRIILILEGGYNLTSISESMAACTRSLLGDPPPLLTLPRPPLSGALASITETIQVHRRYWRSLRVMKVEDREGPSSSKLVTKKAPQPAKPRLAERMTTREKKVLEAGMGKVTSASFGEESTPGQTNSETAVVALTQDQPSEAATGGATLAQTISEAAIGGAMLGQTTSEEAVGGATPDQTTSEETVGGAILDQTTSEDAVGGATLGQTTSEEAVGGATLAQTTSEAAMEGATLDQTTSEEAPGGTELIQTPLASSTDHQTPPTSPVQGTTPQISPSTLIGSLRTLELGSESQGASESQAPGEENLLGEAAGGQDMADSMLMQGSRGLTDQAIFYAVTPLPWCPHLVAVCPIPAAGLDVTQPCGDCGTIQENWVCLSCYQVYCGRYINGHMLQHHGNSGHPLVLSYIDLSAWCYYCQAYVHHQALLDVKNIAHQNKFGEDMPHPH

[3] = target: T2, Histone deacetylase 8 (Homo sapiens) (UniProt Q9BY41); assay: Inhibition of HDAC8 catalytic domain (unknown origin) expressed in Escherichia coli BL21 (DE3) using GRKacFGC as substrate at 10 nM to 1 mM after 60 mins by SAMDI mass spectrometric analysis
T2 sequence (whole entry): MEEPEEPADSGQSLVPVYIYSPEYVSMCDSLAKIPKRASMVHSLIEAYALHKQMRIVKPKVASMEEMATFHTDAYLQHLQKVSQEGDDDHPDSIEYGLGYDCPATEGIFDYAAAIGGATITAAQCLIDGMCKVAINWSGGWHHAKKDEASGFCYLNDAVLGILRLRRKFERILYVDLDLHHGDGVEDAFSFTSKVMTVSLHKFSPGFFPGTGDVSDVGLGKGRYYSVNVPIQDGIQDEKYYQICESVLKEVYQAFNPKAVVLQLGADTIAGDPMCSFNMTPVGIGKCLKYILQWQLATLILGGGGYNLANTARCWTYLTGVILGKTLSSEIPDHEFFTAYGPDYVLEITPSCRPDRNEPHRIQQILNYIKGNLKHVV

[4] = target: T1, Protein deacetylase HDAC6 (Homo sapiens); assay: Inhibition of HDAC6 (unknown origin) expressed in Escherichia coli BL21 (DE3) using GRKacYGC as substrate at 10 uM after 60 mins by SAMDI mass spectrometric analysis relative to control
[5] = target: Histone deacetylase 1 (Homo sapiens) (UniProt Q13547); assay: Inhibition of HDAC1 (unknown origin) expressed in Escherichia coli BL21 (DE3) using GRKacFGC as substrate at 10 uM after 60 mins by SAMDI mass spectrometric analysis relative to control
DU-145 = assay: cells; format: functional, cell-based; conditions: Homo sapiens, DU-145, 72 h
Description: Cytotoxicity against androgen-independent human DU145 cells assessed as growth inhibition after 72 hrs by MTS assay

Jurkat = assay: cells; format: functional, cell-based; conditions: Homo sapiens, 72 h
Description: Cytotoxicity against human Jurkat cells assessed as growth inhibition after 72 hrs by MTS assay

LNCaP = assay: cells; conditions: Homo sapiens, 72 h
Description: Cytotoxicity against androgen-dependent human LNCAP cells assessed as growth inhibition after 72 hrs by MTS assay

[6] = target: T3, Protein deacetylase HDAC6 (Homo sapiens, UniProt Q9UBN7); assay: Inhibition of HDAC6 (unknown origin) expressed in Escherichia coli BL21 (DE3) using GRKacYGC as substrate after 60 mins by SAMDI mass spectrometric analysis
T3 sequence (Q9UBN7 whole entry): T1 sequence (whole entry)

[7] = Aqueous solubility of the compound […] at room temperature by UV-vis spectrophotometric analysis; format: physicochemical
Histone deacetylase 8 = target: T4, Histone deacetylase 8 (Homo sapiens, UniProt Q9BY41); assay: Inhibition of HDAC8 catalytic domain (unknown origin) expressed in Escherichia coli BL21 (DE3) using GRKacFGC as substrate after 60 mins by SAMDI mass spectrometric analysis
T4 sequence (Q9BY41 whole entry): T2 sequence (whole entry)

Vero = assay: Cytotoxicity against African green monkey Vero cells assessed as growth inhibition after 72 hrs by MTS assay; format: cell-based; conditions: Chlorocebus sabaeus
[8] = Cytotoxicity against human Jurkat gamma1 cells assessed as growth inhibition after 72 hrs by MTS assay; format: functional, cell-based

Chain of Histone deacetylase 1 (Homo sapiens) (Q13547 whole entry): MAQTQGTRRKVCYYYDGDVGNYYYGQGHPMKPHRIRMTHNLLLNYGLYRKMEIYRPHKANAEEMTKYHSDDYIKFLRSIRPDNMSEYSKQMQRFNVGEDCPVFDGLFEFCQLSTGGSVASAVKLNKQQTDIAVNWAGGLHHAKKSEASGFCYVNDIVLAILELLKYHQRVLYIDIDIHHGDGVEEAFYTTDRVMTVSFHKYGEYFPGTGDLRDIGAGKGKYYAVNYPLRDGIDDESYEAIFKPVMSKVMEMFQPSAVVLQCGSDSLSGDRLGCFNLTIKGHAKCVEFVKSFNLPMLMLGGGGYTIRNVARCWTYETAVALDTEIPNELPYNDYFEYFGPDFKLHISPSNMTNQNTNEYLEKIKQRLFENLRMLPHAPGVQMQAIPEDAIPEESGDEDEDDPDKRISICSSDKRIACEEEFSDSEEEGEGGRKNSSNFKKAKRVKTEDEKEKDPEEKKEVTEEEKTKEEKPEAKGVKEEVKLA

Row | Compound | inhibition [1] | inhibition [2] | inhibition [3] | inhibition [5] [%] | other results
1 | Cc1ccccc1-c1cn(CCCCCn2cccc(O)c2=O)nn1 | inactive | inactive | inactive |  | 
2 | Oc1cccn(Cc2cn(-c3ccccc3)nn2)c1=S |  |  |  | < 20 | inhibition [4]: 41%
3 | Cc1ccccc1-c1cn(CCCCCn2cccc(O)c2=S)nn1 |  |  |  | < 20 | pIC50 (DU-145): 4.96; pIC50 (Jurkat): 5.29; pIC50 (LNCaP): 5.31; pIC50 [6]: 6.20; solubility [7]: soluble; pIC50 (Histone deacetylase 8): 5.62
4 | O=c1c(O)cccn1CCn1cc(-c2ccccc2)nn1 | inactive | inactive | inactive |  | 
5 | O=c1c(O)cccn1CCCCCCn1cc(-c2ccccc2)nn1 | inactive | inactive | inactive |  | 
6 | CN1CCc2c(c3ccccc3n2Cc2ccc(C(=O)NO)cc2)C1 [TUBASTATIN A] |  |  |  |  | pIC50 (Jurkat): 5.47; pIC50 (LNCaP): 4.96; pIC50 (Vero): < 4.70
7 | Cc1cccc(-c2cn(CCCCCn3cccc(O)c3=O)nn2)c1 | inactive | inactive | inactive |  | 
8 | N#Cc1ccc(-c2cn(CCCCCn3cccc(O)c3=S)nn2)cc1 |  |  |  | < 20 | 
9 | O=c1c(O)cccn1CCCCn1cc(-c2ccccc2)nn1 | inactive | inactive | inactive |  | 
10 | N#Cc1ccc(-c2cn(CCCCCn3cccc(O)c3=S)nn2)cc1C(F)(F)F |  |  |  | < 20 | 
11 | O=c1c(O)cccn1CCCCCn1cc(-c2ccccc2)nn1 | inactive | inactive | inactive |  | 
12 | Oc1cccn(CCCCCCn2cc(-c3ccccc3)nn2)c1=S |  |  |  | < 20 | inhibition [4]: 22%; pIC50 (Histone deacetylase 8): 5.17
13 | N#Cc1ccc(-c2cn(CCCCCn3cccc(O)c3=O)nn2)cc1 | inactive | inactive | inactive |  | 
14 | Oc1cccn(CCCCn2cc(-c3ccccc3)nn2)c1=S |  |  |  | < 20 | pIC50 [6]: 5.96; pIC50 (Histone deacetylase 8): 5.48
15 | CN(C)c1ccc(-c2cn(CCCCCn3cccc(O)c3=S)nn2)cc1 |  |  |  | < 20 | 
16 | O=c1c(O)cccn1CCCn1cc(-c2ccccc2)nn1 | inactive | inactive | inactive |  | 
17 | Cc1cccc(-c2cn(CCCCCn3cccc(O)c3=S)nn2)c1 |  |  |  | < 20 | pIC50 [6]: 5.96; pIC50 (Histone deacetylase 8): 5.78
18 | O=c1c(O)cccn1CCCCCCCn1cc(-c2ccccc2)nn1 | inactive | inactive | inactive |  | 
19 | CN(C)c1ccc(-c2cn(CCCCCn3cccc(O)c3=O)nn2)cc1 | inactive | inactive | inactive |  | 
20 | N#Cc1ccc(-c2cn(CCCCCn3cccc(O)c3=O)nn2)cc1C(F)(F)F | inactive | inactive | inactive |  | 
21 | Cc1ccc(-c2cn(CCCCCn3cccc(O)c3=O)nn2)cc1 | inactive | inactive | inactive |  | 
22 | Oc1cccn(CCn2cc(-c3ccccc3)nn2)c1=S |  |  |  | < 20 | inhibition [4]: 14%
23 | Oc1cccn(CCCCCCCn2cc(-c3ccccc3)nn2)c1=S |  |  |  | < 20 | pIC50 (DU-145): 4.75; pIC50 (Jurkat): 5.04; pIC50 (LNCaP): 4.96; pIC50 [6]: 6.02; pIC50 [8]: < 4.70; solubility [7]: soluble; pIC50 (Histone deacetylase 8): 5.86
24 | Oc1cccn(CCCn2cc(-c3ccccc3)nn2)c1=S |  |  |  | < 20 | pIC50 [6]: 5.44
25 | Cc1ccc(-c2cn(CCCCCn3cccc(O)c3=S)nn2)cc1 |  |  |  | < 20 | pIC50 [6]: 6.09; pIC50 (Histone deacetylase 8): 5.60
26 | N#Cc1cccc(-c2cn(CCCCCn3cccc(O)c3=O)nn2)c1 | inactive | inactive | inactive |  | 
